Series [1] can be described thus: logP determination by HPLC (EEC Directive 79/831 Annex V.A8), reversed-phase column C 18. Format: physicochemical. The procedure:
The logP values given in Table 1 were determined in accordance with EEC Directive 79/831 Annex V.A8 by HPLC (High Performance Liquid Chromatography) using a reversed-phase column (C 18). Temperature: 43° C.
(a) Mobile phases for the determination in the acidic range: 0.1% aqeuous phosphoric acid, acetonitrile; linear gradient from 10% acetonitrile to 90% acetonitrile—the corresponding test results in Table 1 are labelled^a).
(b) Mobile phases for the determination in the neutral range: 0.01 molar aqueous phosphate buffer solution, acetonitrile; linear gradient from 10% acetonitrile to 90% acetonitrile—the corresponding test results in Table 1 are labelled^b).
Calibration was carried out using unbranched alkan-2-ones (having 3 to 16 carbon atoms) with known logP values (determination of the logP values by the retention times using linear interpolation between two successive alkanones).

[2] abbreviates: reversed-phase HPLC column (C 18); a) acidic range: 0.1% aqueous phosphoric acid/acetonitrile gradient, 43° C.

For orientation: chromatographic logP means a lipophilicity value derived from retention on a column. In the case of `CCOC(=O)[C@@H](C)Oc1ccc2cc(Oc3cc(-n4c(=O)cc(C(F)(F)F)n(C)c4=O)c(F)cc3C#N)ccc2c1` [Example 6, ethyl (R)-2-[6-(2-cyano-4-fluoro-5-[3-methyl-2,6-dioxo-4-trifluoromethyl-3,6-dihydro-1(2H)-pyrimidinyl]-phenoxy)-2-naphthyl-oxy]-propanoate], in series [1] (reversed-phase HPLC column (C 18), at pH 2.3), the chromatographic logP was 3.99.
Usually melting point stands for the temperature of the solid-liquid transition. `Cn1c(C(F)(F)F)cc(=O)n(-c2cc(Oc3ccc4cc(O)ccc4c3)c(C#N)cc2F)c1=O` registered a melting point of 174 °C.
`COc1ccc2cc(Oc3cc(-n4c(=O)cc(C(N)=O)n(C)c4=O)c(F)cc3C#N)ccc2c1` [Example 35, 1-[4-cyano-2-fluoro-5-(6-methoxy-naphthalen-2-yl-oxy)-phenyl]-2,6-dioxo-3-methyl-1,2,3,6-tetrahydro-pyrimidine4-carboxamide] showed a chromatographic logP in series [1] (setting [2]) of 2.06.
`COc1cccc2c(Oc3cc(-n4c(=O)cc(C(F)(F)F)n(C)c4=O)c(F)cc3C#N)cccc12` came in with a melting point of 109 °C.
In turn, `COc1ccc2cc(Oc3cc(-n4c(=O)cc(C(=O)O)[nH]c4=O)c(F)cc3C#N)ccc2c1` [Example 31, 1-[4-cyano-2-fluoro-5-(6-methoxy-naphthalen-2-yl-oxy)-phenyl]-2,6-dioxo-1,2,3,6-tetrahydro-pyrimidine-4-carboxylic acid] registered a chromatographic logP in series [1] (setting [2]) of 2.11.
Consider `N#Cc1cc(F)c(-n2c(=O)cc(C(F)(F)F)[nH]c2=O)cc1Oc1cccc2c(O)cccc12`, for which the melting point is 168 °C.
Turning to `COC(=O)c1cc(=O)n(-c2cc(Oc3ccc4cc(OC)ccc4c3)c(C#N)cc2F)c(=O)n1C` [Example 33, methyl I-[4-cyano-2-fluoro-5-(6-methoxy-naphthalen-2-yl-oxy)-phenyl]-2,6-dioxo-3-methyl-1,2,3,6-tetrahydro-pyrimidine-4-carboxylate], in series [1] (setting [2]), the chromatographic logP came to 3.22.
The compound `CCOC(=O)C(C)Oc1ccc2ccc(Oc3cc(-n4c(=O)cc(C(F)(F)F)n(C)c4=O)c(F)cc3C#N)cc2c1` (racemic) gave a melting point of 133 °C.
`N#Cc1cc(F)c(-n2c(=O)cc(C(F)(F)F)[nH]c2=O)cc1Oc1ccc2ccccc2c1` returned a melting point of 92 °C.
On to `CCOC(=O)NC1=CC(=O)N(c2cc(Oc3ccc4cc(OC)ccc4c3)c(C#N)cc2F)C1=O` [Example (VII-1), ethyl [1-(4-cyano-2-fluoro-5-(6-methoxy-naphthalen-2-yl-oxy)-phenyl)-2,5-dioxo-2,5-dihydro-1H-pyrrol-3-yl]-carbamate], for which the chromatographic logP in series [1] (mobile-phase label not given) is 3.63.

(Values after US6624120B1, “Substituted herbicidal phenyluracils” (priority 1999, dated 2003).)
